Measured values taken from ChEMBL document CHEMBL1201862, “PubChem BioAssay data set” (2004).
Active and inactive are the calls of the source.

Tests used:
cells = type: functional
Cytochrome P450 1A2 = target: T1, Cytochrome P450 1A2 (Homo sapiens, UniProt P05177);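 note: PubChem cytochrome P450 panel assay, CYP1A2 panel member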
T1 sequence (P05177 whole entry): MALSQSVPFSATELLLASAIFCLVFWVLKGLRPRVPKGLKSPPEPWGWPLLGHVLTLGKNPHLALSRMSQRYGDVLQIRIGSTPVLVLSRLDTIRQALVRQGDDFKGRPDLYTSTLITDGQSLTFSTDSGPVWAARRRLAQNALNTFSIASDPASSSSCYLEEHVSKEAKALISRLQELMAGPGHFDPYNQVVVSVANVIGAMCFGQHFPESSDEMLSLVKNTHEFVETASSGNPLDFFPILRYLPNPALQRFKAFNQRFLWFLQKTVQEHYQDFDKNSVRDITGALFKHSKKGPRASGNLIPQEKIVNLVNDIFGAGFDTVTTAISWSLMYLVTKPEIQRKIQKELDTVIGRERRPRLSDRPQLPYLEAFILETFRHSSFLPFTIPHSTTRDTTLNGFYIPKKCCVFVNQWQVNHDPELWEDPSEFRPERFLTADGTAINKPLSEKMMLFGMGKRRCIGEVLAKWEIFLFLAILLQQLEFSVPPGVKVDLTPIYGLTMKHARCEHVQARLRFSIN

Cytochrome P450 3A4 = Cytochrome P450 3A4 (Homo sapiens, UniProt P08684);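 note: CYP3A4 tested as one member of a cytochrome P450 panel screen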
Cytochrome P450 2D6 = Cytochrome P450 2D6 (Homo sapiens, UniProt P10635);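 note: CYP2D6 member of a cytochrome P450 panel assay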
Cytochrome P450 2C9 = Cytochrome P450 2C9 (Homo sapiens, UniProt P11712)
Cytochrome P450 2C19 = Cytochrome P450 2C19 (Homo sapiens, UniProt P33261); experiment: Cytochrome panel assay with activity outcomes. Panel member name: p450-cyp2c19 Compounds with AC50 equal or less than 10 uM are considered active; type: functional
[1] = viability of uninfected HEp-2 cells – cell-based, HTS, cytotoxicity control for RSV inhibitor project, dose response (AID 2410); type: functional; conditions: human respiratory syncytial virus
[2] = target: T2, Corticotropin-releasing factor receptor 2/Corticotropin-releasing factor-binding protein (Homo sapiens, UniProt P24387+Q13324); experiment: activators of CRF receptor 2 with binding protein – uHTS hits, confirmation (AID 602473); type: functional; conditions: read-out: EC50_Mean
T2 sequence (Q13324 whole entry): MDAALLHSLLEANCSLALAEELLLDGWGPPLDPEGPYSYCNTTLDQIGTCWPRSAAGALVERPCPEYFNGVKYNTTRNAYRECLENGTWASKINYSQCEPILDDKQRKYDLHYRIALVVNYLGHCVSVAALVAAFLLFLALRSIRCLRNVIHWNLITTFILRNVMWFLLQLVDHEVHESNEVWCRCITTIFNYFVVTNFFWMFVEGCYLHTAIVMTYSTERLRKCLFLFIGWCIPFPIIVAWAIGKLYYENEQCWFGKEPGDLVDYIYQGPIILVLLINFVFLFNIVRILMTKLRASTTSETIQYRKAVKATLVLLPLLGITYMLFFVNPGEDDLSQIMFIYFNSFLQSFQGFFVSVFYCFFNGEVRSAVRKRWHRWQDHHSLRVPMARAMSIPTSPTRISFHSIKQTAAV
T2 sequence (P24387 whole entry): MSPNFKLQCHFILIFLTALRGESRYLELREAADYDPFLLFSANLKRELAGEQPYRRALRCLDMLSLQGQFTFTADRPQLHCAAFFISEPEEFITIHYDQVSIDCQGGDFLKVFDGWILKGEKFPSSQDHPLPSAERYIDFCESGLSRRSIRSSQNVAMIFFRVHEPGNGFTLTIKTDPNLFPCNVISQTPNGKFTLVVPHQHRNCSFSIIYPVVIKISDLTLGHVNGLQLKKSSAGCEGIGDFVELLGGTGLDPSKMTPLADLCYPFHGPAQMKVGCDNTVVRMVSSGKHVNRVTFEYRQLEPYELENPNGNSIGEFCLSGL

H4 = experiment: Luminescence Cell-Based Dose Response HTS to Identify Activators of 5'UTR Stem-Loop Driven Prion Protein mRNA Translation in H4 Neuroglioblastoma Cells. [Related pubchem assays: 1829 (Project Summary), 1814 (Primary HTS)]; type: functional; conditions: Homo sapiens
[3] = Luminescence Cell-Based Dose Response HTS to Identify Activators of Luciferase Translation or Activity in H4 […] Cells. [Related pubchem assays: 1829 (Project Summary), 1814 (Primary HTS)]; type: functional

Cytochrome P450 3A4, sequence (P08684 whole entry): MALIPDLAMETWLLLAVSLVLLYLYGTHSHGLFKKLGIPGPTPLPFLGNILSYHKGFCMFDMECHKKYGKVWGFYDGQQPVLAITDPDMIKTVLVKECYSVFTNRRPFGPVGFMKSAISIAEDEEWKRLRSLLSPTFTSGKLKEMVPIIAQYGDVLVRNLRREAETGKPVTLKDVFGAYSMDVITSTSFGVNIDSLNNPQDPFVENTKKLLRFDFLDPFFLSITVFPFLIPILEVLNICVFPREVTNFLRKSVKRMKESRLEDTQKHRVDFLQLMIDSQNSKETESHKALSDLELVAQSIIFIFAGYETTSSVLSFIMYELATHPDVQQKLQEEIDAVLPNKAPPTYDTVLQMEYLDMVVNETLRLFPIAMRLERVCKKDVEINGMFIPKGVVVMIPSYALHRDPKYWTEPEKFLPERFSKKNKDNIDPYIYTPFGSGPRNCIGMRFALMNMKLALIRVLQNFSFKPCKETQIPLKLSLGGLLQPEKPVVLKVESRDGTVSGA
Cytochrome P450 2C9, sequence (P11712 whole entry): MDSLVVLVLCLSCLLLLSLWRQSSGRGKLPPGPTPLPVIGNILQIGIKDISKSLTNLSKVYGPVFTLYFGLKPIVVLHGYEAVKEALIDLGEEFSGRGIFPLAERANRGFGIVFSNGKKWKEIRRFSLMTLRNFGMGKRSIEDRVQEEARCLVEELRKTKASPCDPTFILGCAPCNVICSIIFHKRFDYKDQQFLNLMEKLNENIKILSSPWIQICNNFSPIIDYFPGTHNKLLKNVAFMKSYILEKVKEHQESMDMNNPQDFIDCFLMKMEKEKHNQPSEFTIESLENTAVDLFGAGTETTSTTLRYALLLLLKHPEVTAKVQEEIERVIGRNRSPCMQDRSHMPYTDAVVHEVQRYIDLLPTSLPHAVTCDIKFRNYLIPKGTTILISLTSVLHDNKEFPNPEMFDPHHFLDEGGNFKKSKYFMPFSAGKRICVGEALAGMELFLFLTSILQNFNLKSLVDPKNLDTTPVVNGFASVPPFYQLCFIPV
Cytochrome P450 2C19, sequence (P33261 whole entry): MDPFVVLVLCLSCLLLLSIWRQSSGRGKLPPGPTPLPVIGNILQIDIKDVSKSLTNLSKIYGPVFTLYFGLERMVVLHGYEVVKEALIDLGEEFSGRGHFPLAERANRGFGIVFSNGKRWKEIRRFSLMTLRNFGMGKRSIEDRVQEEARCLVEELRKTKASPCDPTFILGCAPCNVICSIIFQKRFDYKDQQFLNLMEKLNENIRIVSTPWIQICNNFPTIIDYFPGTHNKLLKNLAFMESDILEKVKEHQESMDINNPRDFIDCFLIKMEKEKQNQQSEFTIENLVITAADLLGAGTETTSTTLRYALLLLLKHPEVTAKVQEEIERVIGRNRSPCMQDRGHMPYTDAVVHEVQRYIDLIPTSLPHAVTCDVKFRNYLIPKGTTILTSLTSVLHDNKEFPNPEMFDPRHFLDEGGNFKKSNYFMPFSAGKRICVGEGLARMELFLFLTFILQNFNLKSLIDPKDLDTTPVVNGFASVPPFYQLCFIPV
Cytochrome P450 2D6, sequence (P10635 whole entry): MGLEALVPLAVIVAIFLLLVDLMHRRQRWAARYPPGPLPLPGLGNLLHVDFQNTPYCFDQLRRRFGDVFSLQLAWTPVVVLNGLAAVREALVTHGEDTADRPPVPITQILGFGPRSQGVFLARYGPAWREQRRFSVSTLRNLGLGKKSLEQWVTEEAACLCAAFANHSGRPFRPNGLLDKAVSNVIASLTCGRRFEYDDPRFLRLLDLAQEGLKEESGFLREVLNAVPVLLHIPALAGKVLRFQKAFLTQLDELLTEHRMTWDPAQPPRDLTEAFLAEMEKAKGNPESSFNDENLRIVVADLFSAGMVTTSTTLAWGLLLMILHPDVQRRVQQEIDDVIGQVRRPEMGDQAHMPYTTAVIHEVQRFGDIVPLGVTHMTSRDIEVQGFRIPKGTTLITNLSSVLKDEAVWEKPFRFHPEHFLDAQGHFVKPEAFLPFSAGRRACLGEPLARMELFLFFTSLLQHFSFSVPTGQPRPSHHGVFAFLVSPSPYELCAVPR

NC(=O)COC(=O)c1sc2ccccc2c1Cl
IC50 (cells): 37.6 µM (active)

CCCCC(=O)NC(Nc1cc(C)ccn1)(C(=O)OCC)C(F)(F)F (centres undefined)
AC50 (Cytochrome P450 1A2): 15.8 µM (inconclusive)

O=[N+]([O-])c1ccccc1CSc1nc(O)c2nc[nH]c2n1
AC50 (Cytochrome P450 3A4): 3.98 µM (inconclusive)

CCOc1c2ccc(C(=O)NCc3cc(C(F)(F)F)cc(C(F)(F)F)c3)cc2nn1C
AC50 (Cytochrome P450 2D6): 20 µM (inconclusive)
AC50 (Cytochrome P450 1A2): 17.8 µM (inconclusive)
AC50 (Cytochrome P450 2C9): 31.6 µM (inconclusive)

Cn1c(COc2nnc(-c3ccc(Cl)cc3)c3ccccc23)nc2ccccc21
AC50 (Cytochrome P450 2C19; read-out: AC50): 14.1 µM (inconclusive)
AC50 (Cytochrome P450 1A2): 14.1 µM (inconclusive)

CCOC(=O)c1nc(O)c2c3c(sc2n1)CC(C)CC3 (centres undefined)
IC50 (cells): 4.55 µM (active)

CN1CC(c2ccccn2)C2(SC(=S)N(Cc3ccccc3)C2=O)C12C(=O)Nc1ccccc12 (centres undefined)
AC50 (Cytochrome P450 2D6): 28.2 µM (inconclusive)

CCOC(=O)c1c(C)[nH]c2ccc3c(c12)CN1CCc2cc(OC)ccc2[C@@H]1O3
AC50 (Cytochrome P450 2C19): inconclusive
AC50 (Cytochrome P450 3A4): 2.51 µM (inconclusive)

CN(C)C(=O)c1ccc(-c2cc(NCc3ccccc3)ncn2)cc1
AC50 (Cytochrome P450 2D6): 39.8 µM (inconclusive)
AC50 (Cytochrome P450 1A2): 12.6 µM (inconclusive)

N#Cc1nc(-c2ccco2)oc1N1CCN(c2cccc(Cl)c2)CC1
CC50 [1]: 31.8 µM (active)

Oc1ccc2c3c1O[C@H]1c4[nH]c5ccccc5c4C[C@]4(O)[C@H](C2)N(CC2CC2)CC[C@@]314
AC50 (Cytochrome P450 3A4): 0.01 µM (inconclusive)

COC(=O)[C@@]1(Cc2ccc(OC)cc2)[C@H]2c3cc(C(=O)N(C)C)n(Cc4ccc(C)c(F)c4F)c3C[C@H]2CN1C(=O)c1ccccc1
AC50 (Cytochrome P450 2D6): 12.6 µM (inconclusive)

CN(C)c1ccc(/C=C/C(=O)c2ccc(O)cc2)cc1
EC50 [2]: 5.34 µM (active)

Cc1ccc(NCCC(=O)c2ccc(Cl)cc2)cc1C
AC50 (Cytochrome P450 3A4): 3.55 µM (inconclusive)

CS(=O)(=O)Nc1cccc(-c2cncnc2Nc2ccccc2)c1
AC50 (Cytochrome P450 2D6): 25.1 µM (inconclusive)

COc1cccc(-c2ccc3ncnc(N4CCOCC4)c3c2)c1
AC50 (Cytochrome P450 2D6): 31.6 µM (inconclusive)

CCN(CC)C[C@@H](O)CN1CCCCc2nc(C)c(C)cc21
AC50 (Cytochrome P450 2D6): 2.51 µM (inconclusive)

Clc1ccccc1-c1cc(NCc2cccnc2)ncn1
AC50 (Cytochrome P450 3A4): 10 µM (inconclusive)

O=C(Nc1ccccc1N1CCOCC1)c1cnccn1
AC50 (Cytochrome P450 2C19; read-out: AC50): 0.0398 µM (inconclusive)
AC50 (Cytochrome P450 3A4): 14.1 µM (inconclusive)

CCC(=O)Nc1nnc(SCC(=O)c2ccc3c(c2)Cc2ccccc2-3)s1
CC50 [1]: 42 µM (active)

CCN(CC)C(=O)CSc1nc2ccc(NC(=O)CSc3nnc(COc4ccccc4C)n3C)cc2s1
AC50 (Cytochrome P450 2D6): 14.1 µM (inconclusive)

COc1cccc(-c2nc(Nc3ccncc3)c3ccccc3n2)c1
AC50 (Cytochrome P450 2D6): 25.1 µM (inconclusive)

Cc1ccc(C)c(S(=O)(=O)N2CCC(c3nc(O)c4nnn(Cc5ccc(F)cc5)c4n3)CC2)c1
AC50 (Cytochrome P450 2D6): 14.1 µM (inconclusive)

COc1cccc(Cn2c(=O)c(-c3ccccc3)nc3cnc(N(C)C)nc32)c1
AC50 (Cytochrome P450 1A2): 10 µM (inconclusive)
AC50 (Cytochrome P450 2C9): 15.8 µM (inconclusive)

CCCn1nnnc1NC(=O)c1ccc(C)cc1Cl
AC50 (Cytochrome P450 1A2): 10 µM (inconclusive)
AC50 (Cytochrome P450 2C9): 0.2 µM (inconclusive)

CCCc1cc2c(n1CCc1ccc(Cl)cc1)C(C)C1CN(C(=O)c3ccccc3)C(C)(C(=O)OC)C21 (centres undefined)
AC50 (Cytochrome P450 1A2): 25.1 µM (inconclusive)

Brc1c(CSc2nncc3ccccc23)nc2ccccn12
IC50 (cells): 5.43 µM (active)

O=C(C1CCCN(c2ncnc3c2nc2n3CCCCC2)C1)N1CCN(c2cccc(Cl)c2)CC1 (centres undefined)
CC50 [1]: 11.7 µM (active)

CN(C)Cc1ccccc1-c1nc(NCc2cccs2)c2ccccc2n1
AC50 (Cytochrome P450 3A4): 6.31 µM (inconclusive)

O=C(Nc1ccc(F)cc1F)c1cc2ccccc2oc1=O
IC50 (cells): 39.7 µM (active)

CCC(=O)n1nc(-c2ccc(OC)cc2)nc1N
AC50 (Cytochrome P450 2C9): 0.0562 µM (inconclusive)

OC(COc1ccccc1Cl)CN1CCN(CC(O)COc2ccccc2Cl)CC1 (centres undefined)
IC50 (cells): 17.3 µM (active)

CC(C)NCC[C@@H](O)c1cc2ccccc2o1
AC50 (Cytochrome P450 2D6): 3.16 µM (inconclusive)

CCOC(=O)c1nnn(-c2nc(OC)nc(N3CCCCC3)n2)c1-c1ccccc1
AC50 (Cytochrome P450 1A2): 14.1 µM (inconclusive)
AC50 (Cytochrome P450 2C9): 28.2 µM (inconclusive)

COc1ccccc1C(=O)N/C(=C/c1ccc(Br)cc1)C(=O)NCC(=O)O
AC50 (Cytochrome P450 1A2): 12.6 µM (inconclusive)

O=C(CN1C(=O)c2cccc3cccc(c23)C1=O)N1CCCCCC1
AC50 (Cytochrome P450 2C9): 22.4 µM (inconclusive)

O=c1c(-c2cc(F)cc(F)c2)nc2cnc(N3CCOCC3)nc2n1C[C@H]1CCCO1
AC50 (Cytochrome P450 1A2): 2.51 µM (inconclusive)

CNc1nc(-c2ccccc2OC)nc2ccccc12
AC50 (Cytochrome P450 2C19): inconclusive
AC50 (Cytochrome P450 3A4): 31.6 µM (inconclusive)

N#Cc1ccc(OCC(=O)Nc2ccncc2)cc1
CC50 [1]: 14.7 µM (active)

CCOc1ccc(C(C)=O)cc1N1C(=O)C2C3C=CC(C3=C(C)C)C2C1=O (centres undefined)
AC50 (Cytochrome P450 2C19; read-out: AC50): 25.1 µM (inconclusive)
AC50 (Cytochrome P450 1A2): 0.0631 µM (inconclusive)
AC50 (Cytochrome P450 2C9): 5.62 µM (inconclusive)

COc1ccc(CCNC(=O)c2ccc3c(c2)OCCO3)cc1
EC50 (H4): 66.7 µM (active)

CCOc1ccc2[nH]c3ccc4nonc4c3c2c1
CC50 [1]: > 50 µM (active)

COc1ccc(-c2c(C)c3ccc(O)cc3oc2=O)cc1
CC50 [1]: 20.9 µM (active)

COc1cc([C@H](O)CO)ccc1O
AC50 (Cytochrome P450 3A4): 0.0316 µM (inconclusive)

Cc1nc(NC(=O)CSc2cc(C)c3ccccc3n2)c(Cl)cc1Cl
CC50 [1]: > 50 µM (active)

CCNc1oc(-c2cccc3ccccc23)nc1C#N
CC50 [1]: > 50 µM (active)

CCCS(=O)(=O)N1CCCC(C(=O)NCc2cccnc2)C1 (centres undefined)
AC50 (Cytochrome P450 2C19; read-out: AC50): 15.8 µM (inconclusive)
AC50 (Cytochrome P450 1A2): 0.00631 µM (inconclusive)

CCn1c(-c2ccc(-c3ccccc3)cc2)cnc1S
CC50 [1]: 18.9 µM (active)

OC(CNCCc1ccc(Cl)cc1)COc1cc(Cl)ccc1Cl (centres undefined)
CC50 [1]: 15.6 µM (active)

Cc1ccc(OCC(=O)Nn2cnc3ccccc32)cc1
AC50 (Cytochrome P450 2D6): 10 µM (inconclusive)

CCCCOc1ccc(S(=O)(=O)NNC(=O)C2Cc3c(ccc4ccccc34)O2)cc1 (centres undefined)
CC50 [1]: 27.1 µM (active)

N=C(NOC(=O)c1ccco1)c1ccccc1
EC50 [3]: 47.4 µM (active)
EC50 (H4): > 120 µM (not active)

COC(=O)[C@@]1(Cc2ccc(F)cc2)[C@H]2c3cc(C(=O)N(C)C)n(CC4CC4)c3C[C@H]2CN1C(=O)c1ccccc1
AC50 (Cytochrome P450 1A2): 25.1 µM (inconclusive)

COc1ccc(CCNC(=O)c2ccccc2NC(=O)c2ccco2)cc1OC
AC50 (Cytochrome P450 1A2): 22.4 µM (inconclusive)

CC(C)OC(=O)CSc1nc(-c2ccc(F)cc2)nc2ccc(F)cc12
AC50 (Cytochrome P450 2C19; read-out: AC50): 0.112 µM (inconclusive)
AC50 (Cytochrome P450 2C9): 0.0178 µM (inconclusive)

COc1ccc(-c2[nH]ncc2CN2CCCCCCC2)c(OC)c1
IC50 (cells): 18.5 µM (active)

Cc1ccc(C(=O)NN2CCOCC2)cc1
AC50 (Cytochrome P450 2D6): 0.224 µM (inconclusive)

Cc1ccc(S(=O)(=O)N(C)CC(=O)NCCCc2ccccc2)cc1
EC50 [2]: > 53 µM (inactive)

O=C(NC(C(=O)N/N=C/c1ccccc1)c1nnc(O)c2ccccc12)c1ccccc1 (centres undefined)
EC50 [2]: 5.14 µM (active)

Cn1c2c(c3ccccc31)CC/C2=N\O
CC50 [1]: 38.5 µM (active)

O=C(N/N=C/c1ccc(Br)s1)c1ccncc1
IC50 (cells): < 0.1 µM (active)

Cc1cccc(CNc2ncncc2-c2cccc(C#N)c2)c1
AC50 (Cytochrome P450 2D6): 31.6 µM (inconclusive)

COc1ccc(CCNc2cc(-c3ccccc3)nc3ncnn23)cc1
IC50 (cells): 2.48 µM (active)

O=C(Cc1ccc(Cl)c(Cl)c1)OCCN1CCCC1
AC50 (Cytochrome P450 2D6): 31.6 µM (inconclusive)
